This assay has as its system mutant Huntington (HTT) protein. In words: HTT Mutant HTRF iPSC assay (mHTT protein lowering). In kind it is cell-based. Particulars: human iPSC derived from a HTT patient with a poly-Q49 mutation. A general note: TR-FRET usually uses a lanthanide donor and a delayed reading to cut background.

For orientation: IC50 means the midpoint of a concentration-inhibition curve. A higher IC50 goes with weaker potency in that assay. On to `Cc1cn2nc(-c3cc(F)c4nc(NC(=O)C5CN(C(C)C)C5)nn4c3)cc(C)c2n1` [Compound 324, N-[6-(2,8-dimethylimidazo[1,2-b]pyridazin-6-yl)-8-fluoro-[1,2,4]triazolo[1,5-a]pyridin-2-yl]-1-isopropyl-azetidine-3-carboxamide], for which the IC50 lay in the range of 1000 to 9000 nM. The figure for `Cc1cn2nc(-c3cc(F)c4nc(NC(=O)C5CCN(C)CC5)nn4c3)cc(C)c2n1` [Compound 327, N-(6-(2,8-dimethylimidazo[1,2-b]pyridazin-6-yl)-8-fluoro-[1,2,4]triazolo[1,5-a]pyridin-2-yl)-1-methylpiperidine-4-carboxamide] is less than 100 nM; for `Cc1cn2nc(-c3cc(F)c4nc(C(=O)NC5CN(C(C)C)C5)cn4c3)cc(C)c2n1` [Compound 331, 6-(2,8-dimethylimidazo[1,2-b]pyridazin-6-yl)-8-fluoro-N-(1-isopropylazetidin-3-yl)imidazo[1,2-a]pyridine-2-carboxamide] it is less than 100 nM; for `Cc1cn2nc(-c3cc(F)c4nc(C(=O)N(C)C5CCN(C)CC5)cn4c3)cc(C)c2n1` [Compound 332, 6-(2,8-dimethylimidazo[1,2-b]pyridazin-6-yl)-8-fluoro-N-methyl-N-(1-methylpiperidin-4-yl)imidazo[1,2-a]pyridine-2-carboxamide] it is less than 100 nM. Next, `Cc1cn2nc(-c3cc(F)c4nc(C(=O)NCC5CCCN5C)cn4c3)cc(C)c2n1` (stereo not shown) [Compound 334, 6-(2,8-dimethylimidazo[1,2-b]pyridazin-6-yl)-8-fluoro-N-((1-methylpyrrolidin-2-yl)methyl)imidazo[1,2-a]pyridine-2-carboxamide]: 100 to 1000 nM; `Cc1cn2nc(-c3cc(F)c4nc(C(=O)NC[C@H]5CCCCN5C)cn4c3)cc(C)c2n1` [Compound 335, 6-(2,8-dimethylimidazo[1,2-b]pyridazin-6-yl)-8-fluoro-N-[[(2R)-1-methyl-2-piperidyl]methyl]imidazo[1,2-a]pyridine-2-carboxamide]: 100 to 1000 nM. For the compound `COCCN1CC(NC(=O)c2cn3cc(-c4cc(C)c5nc(C)cn5n4)cc(F)c3n2)C1` [Compound 338, 6-(2,8-dimethylimidazo[1,2-b]pyridazin-6-yl)-8-fluoro-N-[1-(2-methoxyethyl)azetidin-3-yl]imidazo[1,2-a]pyridine-2-carboxamide], the half-maximal inhibitory concentration (IC50) is less than 100 nM. `Cc1cn2nc(-c3cc(F)c4nc(C(=O)NC5CN(CC6CC6)C5)cn4c3)cc(C)c2n1` [Compound 339, N-[1-(cyclopropylmethyl)azetidin-3-yl]-6-(2,8-dimethylimidazo[1,2-b]pyridazin-6-yl)-8-fluoro-imidazo[1,2-a]pyridine-2-carboxamide] displayed an IC50 of less than 100 nM. The figure for `Cc1cn2nc(-c3cc(F)c4nn(C5CCNCC5)cc4c3)cc(C(F)F)c2n1` [Compound 350, 8-(difluoromethyl)-6-[7-fluoro-2-(4-piperidyl)indazol-5-yl]-2-methyl-imidazo[1,2-b]pyridazine] is less than 100 nM; for `Cc1cc(-c2cc(F)c3nn(C4CCNCC4)cc3c2)cc2cn(C)nc12` [Compound 351, 7-fluoro-2′,7′-dimethyl-2-(piperidin-4-yl)-2H,2′H-5,5′-biindazole] it is 100 to 1000 nM.

Turning to `Fc1cc(-c2ccc3nc(C(F)F)cn3n2)cc2cn(C3CCNCC3)nc12` [Compound 352, 2-(difluoromethyl)-6-(7-fluoro-2-(piperidin-4-yl)-2H-indazol-5-yl)imidazo[1,2-b]pyridazine], the 50% inhibitory concentration (IC50) was in the range of 1000 to 9000 nM. The figure for `Cc1cc(-c2cc(F)c3nn(C4CCNCC4)cc3c2)nc2cn(C)nc12` [Compound 353, 5-(7-fluoro-2-(piperidin-4-yl)-2H-indazol-5-yl)-2,7-dimethyl-2H-pyrazolo[4,3-b]pyridine] is 100 to 1000 nM; for `Cc1cn2nc(-c3cc(F)c4nn(C5CCN(C6CC6)CC5)cc4c3)cc(C(F)F)c2n1` [Compound 354, 6-(2-(1-cyclopropylpiperidin-4-yl)-7-fluoro-2H-indazol-5-yl)-8-(difluoromethyl)-2-methylimidazo[1,2-b]pyridazine] it is 100 to 1000 nM; for `Cc1cn2nc(-c3cc(F)c4nn(C5CCNCC5)cc4c3)cc(C)c2n1` [Compound 355, 6-(7-fluoro-2-(piperidin-4-yl)-2H-indazol-5-yl)-2,8-dimethylimidazo[1,2-b]pyridazine] it is less than 100 nM.

On to `Cc1cc(-c2cc(F)c3nn(C4CCN(C)CC4)cc3c2)cc2cn(C)nc12` [Compound 356, 7-fluoro-2′,7′-dimethyl-2-(1-methylpiperidin-4-yl)-2H,2′H-5,5′-biindazole], for which the IC50 was in the range of 100 to 1000 nM. The figure for `CCc1cc(-c2cc(F)c3nn(C4CCN(C)CC4)cc3c2)nn2cc(C)nc12` [Compound 357, 8-ethyl-6-(7-fluoro-2-(1-methylpiperidin-4-yl)-2H-indazol-5-yl)-2-methylimidazo[1,2-b]pyridazine] is 100 to 1000 nM; for `COc1cc(-c2cc(F)c3nn(C4CCN(C)CC4)cc3c2)nn2nc(C)nc12` [Compound 358, 6-(7-fluoro-2-(1-methylpiperidin-4-yl)-2H-indazol-5-yl)-8-methoxy-2-methyl-[1,2,4]triazolo[1,5-b]pyridazine] it is less than 100 nM; for `Cc1nc2c(C)cc(-c3cc(F)c4nn(C5CCN(C)CC5)cc4c3)nn2n1` [Compound 359, 6-(7-fluoro-2-(1-methylpiperidin-4-yl)-2H-indazol-5-yl)-2,8-dimethyl-[1,2,4]triazolo[1,5-b]pyridazine] it is less than 100 nM. Next, `Cc1cc2nc(-c3cc(F)c4nn(C5CCN(C)CC5)cc4c3)cc(C)n2n1` [Compound 360, 5-(7-fluoro-2-(1-methylpiperidin-4-yl)-2H-indazol-5-yl)-2,7-dimethylpyrazolo[1,5-a]pyrimidine]: 100 to 1000 nM; `Cc1cn2nc(-c3cc(F)c4nn([C@H]5[C@@H]6CNC[C@@H]65)cc4c3)cc(C)c2n1` [Compound 361, 6-[2-[(1R,5S)-3-azabicyclo[3.1.0]hexan-6-yl]-7-fluoro-indazol-5-yl]-2,8-dimethyl-imidazo[1,2-b]pyridazine]: less than 100 nM; `Cc1cn2nc(-c3cc(F)c4nn(C5CCN(C)CC5)cc4c3)cc(C)c2n1` [Compound 362, 6-(7-fluoro-2-(1-methylpiperidin-4-yl)-2H-indazol-5-yl)-2,8-dimethylimidazo[1,2-b]pyridazine]: less than 100 nM. Next, `Cc1cn2nc(-c3cc(F)c4nn(C5CCN(C)CC5)cc4c3)cc(C(F)F)c2n1` [Compound 363, 8-(difluoromethyl)-6-(7-fluoro-2-(1-methylpiperidin-4-yl)-2H-indazol-5-yl)-2-methylimidazo[1,2-b]pyridazine]: less than 100 nM; `Cc1cn2nc(-c3cc(F)c4nn(C5CCN(C)CC5)cc4c3)cc(C)c2n1` [Compound 364, 6-(7-fluoro-2-(1-methylpiperidin-4-yl)-2H-indazol-5-yl)-2,8-dimethylimidazo[1,2-b]pyridazine]: 100 to 1000 nM. Compound `Cc1cn2nc(-c3cc(F)c4nn(C5CCNCC5)cc4c3)ccc2n1` [Compound 365, 6-(7-fluoro-2-(piperidin-4-yl)-2H-indazol-5-yl)-2-methylimidazo[1,2-b]pyridazine] returned a concentration for half-maximal inhibition (IC50) of less than 100 nM.

For `Cc1cn2nc(-c3cc(F)c4nn(C5CCN(C)C5)cc4c3)cc(C)c2n1` (stereo not shown) [Compound 366, 6-(7-fluoro-2-(1-methylpyrrolidin-3-yl)-2H-indazol-5-yl)-2,8-dimethylimidazo[1,2-b]pyridazine], the half-inhibitory concentration (IC50) was in the range of 1000 to 9000 nM.

The record behind these values is US20250353841A1 (BIOGEN MA INC., priority 2022, published 2025).
